Laboratory results from US20120094964A1, “SULFAMOYL BENZOIC ACID DERIVATIVES AS TRPM8 ANTAGONISTS” (priority 2009, published 2012).

Molecular target: T1, human TRPM8 (Homo sapiens, UniProt Q7Z2W7)
T1 construct: expressed in transfected cells
Test: In Vitro human TRPM8 Functional Assay (intracellular Ca2+, Fluo4, FDSS, menthol activation)
Format: cell-based
Settings: HEK293 cells stably expressing human TRPM8; activation with L-(-)-Menthol; 11-point dose-response
Method: In Vitro human TRPM8 Functional Assay
The functional activity of compounds was determined by measuring changes in intracellular calcium concentration using a Ca^2+-sensitive fluorescent dye, Fluo4 (Molecular Probes). The changes in fluorescent signal were monitored by the cell imaging technology by Hamamatsu Photonics's Functional Drug Screening System (FDSS).
HEK293 cells stably expressing human TRPM8 were grown in T175 flasks, in a 5% CO2 humidified incubator to about 80% confluence. Media composition consisted of Dulbecco's Modified Eagle Medium (high glucose), 10% fetal calf serum (FCS), 100 units/ml Penicillin, 100 microg/ml Streptomycin and 600 microg/ml Geneticine.
1. Plate-out HEK293-TRPM8 cells (40 microL medium containing 30,000 cells per well) into poly-D-lysine coated 384-well plates (BD FALCON) at 24 hours prior to assay.
1. […] 2. […] 3. Place the plate at room temperature in dark for 1 hour. 4. […] 5. Add 20 microL of compound solutions into each well and leave the plate for 5 minutes under the dark at room temperature. 6. Measure activity by FDSS as follows: • Set the assay plate on the stacker of FDSS • Start the detection of fluorescence intensity • After 30 sec, add 20 microL of 90 microM L-(−)-Menthol
IC50 values for compounds of the present invention were determined from 11-point dose-response studies. Curves were generated using the average of duplicate wells for each data point. Finally, the IC50 values are calculated with the best-fit dose curve determined by XLfit (ID Business Solutions Ltd.).

T1 sequence (Q7Z2W7 whole entry): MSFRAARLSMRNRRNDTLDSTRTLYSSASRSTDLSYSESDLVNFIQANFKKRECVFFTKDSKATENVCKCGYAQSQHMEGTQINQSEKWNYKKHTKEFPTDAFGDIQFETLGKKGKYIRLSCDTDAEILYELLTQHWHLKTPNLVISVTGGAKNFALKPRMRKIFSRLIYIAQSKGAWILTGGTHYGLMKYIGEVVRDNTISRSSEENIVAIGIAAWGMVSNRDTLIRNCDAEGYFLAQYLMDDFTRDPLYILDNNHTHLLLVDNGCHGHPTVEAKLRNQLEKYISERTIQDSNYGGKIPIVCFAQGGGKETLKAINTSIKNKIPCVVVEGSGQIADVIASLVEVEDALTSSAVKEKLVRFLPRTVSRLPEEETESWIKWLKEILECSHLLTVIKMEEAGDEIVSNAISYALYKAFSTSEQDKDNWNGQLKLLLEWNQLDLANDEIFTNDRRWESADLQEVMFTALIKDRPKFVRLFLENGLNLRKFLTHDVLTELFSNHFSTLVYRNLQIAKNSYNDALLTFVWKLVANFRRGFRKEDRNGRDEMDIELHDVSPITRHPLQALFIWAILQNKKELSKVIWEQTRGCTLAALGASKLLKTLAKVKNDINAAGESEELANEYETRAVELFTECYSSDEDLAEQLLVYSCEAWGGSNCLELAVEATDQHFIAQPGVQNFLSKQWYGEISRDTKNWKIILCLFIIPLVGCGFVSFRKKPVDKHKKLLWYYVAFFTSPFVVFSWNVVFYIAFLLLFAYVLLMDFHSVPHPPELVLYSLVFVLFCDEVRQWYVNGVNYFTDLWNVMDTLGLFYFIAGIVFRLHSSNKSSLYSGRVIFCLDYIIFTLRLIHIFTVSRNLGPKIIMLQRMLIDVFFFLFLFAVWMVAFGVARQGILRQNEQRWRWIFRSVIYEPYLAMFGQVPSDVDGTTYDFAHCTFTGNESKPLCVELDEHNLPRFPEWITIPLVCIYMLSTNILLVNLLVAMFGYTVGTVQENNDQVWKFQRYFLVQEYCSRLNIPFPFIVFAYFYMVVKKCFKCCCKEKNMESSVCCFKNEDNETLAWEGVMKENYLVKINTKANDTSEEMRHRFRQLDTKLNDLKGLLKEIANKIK

Row | SMILES | IC50
1 | Cc1cc(Cl)cnc1N(Cc1ccc(OC(F)(F)F)cc1)S(=O)(=O)c1ccc(C(=O)O)cc1 [Example 78, 4-(N-(5-Chloro-3-methylpyridin-2-yl)-N-(4-(trifluoromethoxy)benzyl)sulfamoyl)benzoic acid] | < 1 µM
2 | O=C(O)c1ccc(S(=O)(=O)N(CCCc2ccccc2)c2ncc(C(F)(F)F)cc2Cl)cc1 [Example 59, 4-(N-(3-Chloro-5-(trifluoromethyl)pyridin-2-yl)-N-(3-phenylpropyl)sulfamoyl)benzoic acid] | < 1 µM
3 | O=C(O)c1ccc(S(=O)(=O)N(Cc2ccc(OC(F)(F)F)cc2)c2ncc(C(F)(F)F)cc2Cl)cc1 [Example 15, 4-(N-(3-Chloro-5-(trifluoromethyl)pyridin-2-yl)-N-(4-(trifluoromethoxy)benzyl)sulfamoyl)benzoic acid] | < 1 µM
4 | Cc1cc(Cl)cnc1N(Cc1ccc(C(F)(F)F)cc1)S(=O)(=O)c1ccc(C(=O)O)cc1 [Example 55, 4-(N-(5-Chloro-3-methylpyridin-2-yl)-N-(4-(trifluoromethyl)benzyl)sulfamoyl)benzoic acid] | < 1 µM
5 | O=C(O)c1ccc(S(=O)(=O)N(Cc2ccccc2C(F)(F)F)c2ncc(Cl)cc2Cl)cc1 [Example 64, 4-(N-(3,5-Dichloropyridin-2-yl)-N-(2-(trifluoromethyl)benzyl)sulfamoyl)benzoic acid] | < 1 µM
6 | O=C(O)c1ccc(S(=O)(=O)N(CCC2CCCCC2)c2ncc(C(F)(F)F)cc2Cl)cc1 [Example 19, 4-(N-(3-Chloro-5-(trifluoromethyl)pyridin-2-yl)-N-(2-cyclohexylethyl)sulfamoyl)benzoic acid] | < 1 µM
7 | Cc1cc(Cl)cnc1N(Cc1ccccc1)S(=O)(=O)c1ccc(C(=O)O)cc1 [Example 38, 4-(N-Benzyl-N-(5-chloro-3-methylpyridin-2-yl)sulfamoyl)benzoic acid] | < 1 µM
8 | O=C(O)c1ccc(S(=O)(=O)N(Cc2cc(F)cc(F)c2)c2ncc(C(F)(F)F)cc2Cl)cc1 [Example 42, 4-(N-(3-Chloro-5-(trifluoromethyl)pyridin-2-yl)-N-(3,5-difluorobenzyl)sulfamoyl)benzoic acid] | < 1 µM
9 | O=C(O)c1ccc(S(=O)(=O)N(Cc2ccc(C(F)(F)F)cc2)c2ncc(Cl)cc2Cl)cc1 [Example 54, 4-(N-(3,5-Dichloropyridin-2-yl)-N-(4-(trifluoromethyl)benzyl)sulfamoyl)benzoic acid] | < 1 µM
10 | O=C(O)c1ccc(S(=O)(=O)N(Cc2ccc(Cl)cc2C(F)(F)F)c2ncc(Cl)cc2Cl)cc1 [Example 72, 4-(N-(4-Chloro-2-(trifluoromethyl)benzyl)-N-(3,5-dichloropyridin-2-yl)sulfamoyl)benzoic acid] | < 1 µM
11 | O=C(O)c1ccc(S(=O)(=O)N(Cc2cccc(C(F)(F)F)c2)c2ncc(C(F)(F)F)cc2Cl)cc1 [Example 23, 4-(N-(3-Chloro-5-(trifluoromethyl)pyridin-2-yl)-N-(3-(trifluoromethyl)benzyl)sulfamoyl)benzoic acid] | < 1 µM
12 | O=C(O)c1ccc(S(=O)(=O)N(Cc2ccccc2F)c2ncc(C(F)(F)F)cc2Cl)cc1 [Example 20, 4-(N-(3-Chloro-5-(trifluoromethyl)pyridin-2-yl)-N-(2-fluorobenzyl)sulfamoyl)benzoic acid] | < 1 µM
13 | CN1CCN(C(=O)CN(c2cccc(C(F)(F)F)c2)S(=O)(=O)c2ccccc2)CC1 [Example 5, N-(2-(4-Methylpiperazin-1-yl)-2-oxoethyl)-N-(3-(trifluoromethyl)phenyl)benzenesulfonamide] | < 1 µM

Other lines, results leading:

Row | IC50 | SMILES
14 | < 1 µM | Cc1cc(C(F)(F)F)cnc1N(Cc1ccccc1)S(=O)(=O)c1ccc(C(=O)O)cc1 [Example 153, 4-(N-Benzyl-N-(3-methyl-5-(trifluoromethyl)pyridin-2-yl)sulfamoyl)benzoic acid]
15 | 1 to 10 µM | COc1cccc(C(C)N(c2ccccc2)S(=O)(=O)c2cccc(F)c2)c1 (centres unmarked) [Example 138, 3-Fluoro-N-(1-(3-methoxy-phenyl)ethyl)-N-phenyl-benzenesulfonamide]
16 | < 1 µM | O=S(=O)(c1ccc(O)nc1)N(Cc1ccccc1)c1ncc(C(F)(F)F)cc1Cl [Example 144, N-Benzyl-N-(3-chloro-5-(trifluoromethyl)pyridin-2-yl)-6-hydroxypyridine-3-sulfonamide]
17 | 1 to 10 µM | Cc1cccc(N(C(C)c2ccccc2F)S(=O)(=O)c2ccccc2F)c1 (centres unmarked) [Example 91, 2-Fluoro-N-(1-(2-fluoro-phenyl)ethyl)-N-m-tolyl benzenesulfonamide]
18 | < 1 µM | O=C(O)c1ccc(S(=O)(=O)N(Cc2ccc(-c3ccco3)cc2)c2ncc(C(F)(F)F)cc2Cl)cc1 [Example 157, 4-(N-(3-Chloro-5-(trifluoromethyl)pyridin-2-yl)-N-(4-(furan-2-yl)-benzyl)sulfamoyl)benzoic acid]
19 | 1 to 10 µM | Cc1cc(Cl)cnc1N(Cc1ccc(N2CCCC2=O)cc1)S(=O)(=O)c1ccc(C(=O)O)cc1 [Example 80, 4-(N-(5-Chloro-3-methylpyridin-2-yl)-N-(4-(2-oxopyrrolidin-1-yl)benzyl)sulfamoyl)benzoic acid]
20 | 1 to 10 µM | COc1ccc(N(C(C)c2ccccc2OC)S(=O)(=O)c2ccccc2F)cc1OC (centres unmarked) [Example 93, N-(3,4-Dimethoxyphenyl)-2-fluoro-N-(1-(2-methoxy-phenyl)ethyl)benzene-sulfonamide]
21 | 10 to 30 µM | O=C(O)c1ccc(Cl)c(S(=O)(=O)N(Cc2ccccc2)c2ccccc2)c1 [Example 126, 3-(N-Benzyl-N-phenylsulfamoyl)-4-chlorobenzoic acid]
22 | 1 to 10 µM | COc1cccc(N(CC(=O)N2CCN(Cc3ccccc3)CC2)S(=O)(=O)c2ccccc2)c1 [Example 84, N-(2-(4-Benzylpiperazin-1-yl)-2-oxoethyl)-N-(3-methoxyphenyl)benzene-sulfonamide]
23 | < 1 µM | COc1ccc(S(=O)(=O)N(Cc2ccccc2)c2ncc(C(F)(F)F)cc2Cl)cc1 [Example 175, N-Benzyl-N-(3-chloro-5-(trifluoromethyl)pyridin-2-yl)-4-methoxybenzenesulfonamide]
24 | 1 to 10 µM | COc1ccccc1N(Cc1ccccc1)S(=O)(=O)c1cc(C(=O)O)ccc1Cl [Example 118, 3-(N-Benzyl-N-(2-methoxyphenyl)sulfamoyl)-4-chlorobenzoic acid]
25 | 1 to 10 µM | Cc1ccc(S(=O)(=O)N(Cc2ccccc2)c2ccccn2)cc1[N+](=O)[O-] [Example 133, N-Benzyl-4-methyl-3-nitro-N-(pyridin-2-yl) benzenesulfonamide]
26 | < 1 µM | O=C(O)c1ccc(S(=O)(=O)N(Cc2ccc(-c3ccncc3)cc2)c2ncc(C(F)(F)F)cc2Cl)cc1 [Example 156]
27 | 1 to 10 µM | COc1ccc(OC)c(C(C)N(c2ccc(F)cc2)S(=O)(=O)c2ccc(F)cc2C)c1 (centres unmarked) [Example 135, N-(1-(2,5-Dimethoxyphenyl)ethyl)-4-fluoro-N-(4-fluoro-phenyl)-2-methylbenzene-sulfonamide]
28 | < 1 µM | COc1ccc(-c2cnc(N(Cc3ccccc3)S(=O)(=O)c3ccc(C(=O)O)cc3)c(Cl)c2)cc1 [Example 186, 4-(N-Benzyl-N-(3-chloro-5-(4-methoxyphenyl)pyridin-2-yl)sulfamoyl)benzoic acid]
29 | < 1 µM | O=C(O)c1ccc(S(=O)(=O)N(Cc2cccc(-c3ccccc3)c2)c2ncc(C(F)(F)F)cc2Cl)cc1 [Example 164, 4-(N-[(1,1′-Biphenyl]-3-ylmethyl)-N-(3-chloro-5-(trifluoromethyl)pyridin-2-yl)sulfamoyl)benzoic acid]
